Data as given in US20130210143A1, “NOVEL METHODS FOR PREVENTING OR TREATING DIABETES” (FUNDACION PUBLICA ANDALUZA PROGRESO Y SALUD, priority 2010, published 2013).
“Also recorded” adds a separate entry of the source.

How the values were obtained:
LRH-1 = assay: Quantitative RT-PCR of LRH-1 transcript levels in treated human islets; format: cell-based; conditions: for LRH-1 expression (transcript levels): 10 nM 17β-estradiol (6 hours) or 10 or 50 uM Formula II (any time point)
Protocol: (§1) INS-1E cells or islets (rat or human) were cultured in phenol red free medium containing 10% Charcoal-stripped FCS for 48 h. The latter removes all traces of endogenous steroids, which may skew results. Subsequently, 0.0001% DMSO (vehicle) and/or 10 nM 17β-estradiol were added to the media. Alternatively human islets were also treated with increasing concentrations of either DMSO (vehicule) or with a combination of estrogen and the LRH-1 agonist of Formula II (SevenHills Pharma, Fort Collins, USA) for various time intervals. For apoptosis studies (FIG. 8A), islets were pre-treated with 0.1% DMSO (vehicule) or with 10 μM of the LRH-1 agonist of Formula II. Twenty-four hours later, DMSO or the LRH-1 agonist of Formula II were added again to the medium and incubated for 1 extra hour prior to the addition of either a cocktail of human cytokines (2 ng/ml IFN-γ, IL-1β and TNF-α). Samples of 50 islets were then collected at 24 and 72 hours. The media was replenished with DMSO and the LRH-1 agonist of Formula II at 24 and 48 hours.
(§2) Total RNA was extracted using the RNeasy Micro Kit (Qiagen) and 1-2 μg was converted into cDNA with the Superscript II Reverse transcriptase (Invitrogen). Primers were designed using the Primer Express software (Applera Europe, Rotkreuz, Switzerland) and sequences are provided in Table 1. Real time PCR was performed using an ABI 7000 Sequence Detection System (Applera Europe), and PCR products were quantified fluorometrically using the FastStart Universal SYBR Green Master (Roche Diagnostics, Rotkreuz, Switzerland). Three distinct amplifications were performed in duplicate for each transcript, and mean values were normalized to the mean value of the reference mRNA cyclophilin.

Type 2 diabetic islets = assay: Glucose-stimulated insulin secretion, islets from Type 2 diabetic donors; format: cell-based, human
Protocol: (§3) Twenty human islets/sample were preincubated with KRBH buffer (135 mM NaCl, 3.6 mM KCl, 2 mM NaHCO3, 0.5 mM NaH2PO4, 0.5 mM MgSO4, 1.5 mM CaCl2, 10 mM HEPES, pH 7.4, and 0.1% bovine serum albumin) containing 2.5 mM glucose for 30 min. Cells were then incubated for 30 min in KRBH buffer containing 2.5 mM or 16.5 mM glucose. In some instances islets were also cultured in the presence of increasing concentrations of a LRH-1 agonist of Formula II or glibenclamide. Insulin content, obtained by 10% acetic acid/ethanol (v/v) treatment on islets, and secreted insulin were quantified using the rat insulin enzyme immunoassay kit (Spi-Bio, Montigny le Bretonneux, France).

SHP = assay: Quantitative RT-PCR of SHP (LRH-1 downstream target) transcript levels in treated human islets; format: cell-based; conditions: for Further stimulation of SHP expression: human islets, increased concentration of Formula II or addition of 17β-estradiol
Protocol: as §1, §2

control islets = assay: Glucose-stimulated insulin secretion, control (non-diabetic) human islets; format: cell-based
Protocol: as §3

[1] = target: T1, ligand binding domain of human LRH1 (Homo sapiens, UniProt O00482); conditions: Whitby et al. (2006); cited from earlier work
T1 construct: made in house

human islets [2] = assay: Cytokine-induced apoptosis in human islets (Cell Death Detection ELISA); format: cell-based; conditions: 10 uM, cytokines 2 ng/ml IFN-γ, IL-1β and TNF-α, 24 hours post-treatment
Protocol: INS-1E cells or islets (rat or human) were cultured in phenol red free medium containing 10% Charcoal-stripped FCS for 48 h. The latter removes all traces of endogenous steroids, which may skew results. Subsequently, 0.0001% DMSO (vehicle) and/or 10 nM 17β-estradiol were added to the media. Alternatively human islets were also treated with increasing concentrations of either DMSO (vehicule) or with a combination of estrogen and the LRH-1 agonist of Formula II (SevenHills Pharma, Fort Collins, USA) for various time intervals. For apoptosis studies (FIG. 8A), islets were pre-treated with 0.1% DMSO (vehicule) or with 10 μM of the LRH-1 agonist of Formula II. […]
For proliferation, 10 μM BrdU was added to INS-1E cells for 3 h, and to rat or human islets for 24 h. […] Cell apoptosis induced either by cytokines or streptozotocin was measured using the TUNEL assay (In Situ Cell Death Detection Kit, Roche). Alternatively, the Cell Death Detection ELISA^PLUS (Roche) was used to quantify the degree of cytoplasmic histone-associated-DNA-fragments. Results of BrdU and TUNEL assays are expressed as a percentage of BrdU- or TUNEL-positive cells (fluorescein- or TMR-red-labelled nuclei) over the total amount of cells (nuclei staining by DAPI). […]

human islets [3] = assay: MTT toxicity test (cell viability) in isolated human islets; format: cell-based; conditions: for Islet viability (MTT): islets of the first Type 2 diabetic donor, 48 h, Formula II at 50 uM
Protocol: The MTT (C,N-diphenyl-N′-4,5-dimethyl thiazol-2-yl tetrazolium bromide) colorimetric assay (reduction of tetrazolium salt to formazan) was used to measure cell viability. The assay provides an indirect estimation of mitochondrial oxidative processes of living cells (Janjic, 1992). Briefly, 40 isolated human islets were incubated for 24 or 48 hours with DMSO or a combination of DMSO and the LRH-1 agonist of Formula II. Islets were washed and pre-incubated with KRBH at 37° C. for 40 minutes. Islets were then incubated at 37° C. for 90 minutes with KRBH containing yellow MTT (0.5 mg/ml). Cells were wash and incubated for 20 minutes at room temperature in DMSO to solubilize formazan crystals. Colorimetric measurements were performed at 570 nm with reference wavelength 650 nm automatically subtracted.

[4] = islets from a second Type 2 diabetic donor

T1 sequence (O00482 300-541): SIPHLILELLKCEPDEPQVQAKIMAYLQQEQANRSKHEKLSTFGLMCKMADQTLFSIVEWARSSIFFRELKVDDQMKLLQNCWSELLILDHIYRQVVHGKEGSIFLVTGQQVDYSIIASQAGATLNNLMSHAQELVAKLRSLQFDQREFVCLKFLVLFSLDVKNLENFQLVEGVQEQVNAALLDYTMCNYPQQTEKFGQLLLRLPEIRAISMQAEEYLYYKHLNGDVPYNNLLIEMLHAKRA

| SMILES | LRH-1 expression (transcript levels) (LRH-1) | LRH-1 expression on addition to 17β-estradiol (LRH-1; Formula II combined with 17β-estradiol) | Glucose-induced insulin secretion (Type 2 diabetic islets; islets from a Type 2 diabetic donor, 50 uM, not significant) | Insulin secretion in response to high glucose concentrations (Type 2 diabetic islets; [4]) | Insulin secretion in response to low glucose concentrations (Type 2 diabetic islets; [4]) | SHP transcript levels, increase (SHP; human islets treated for 10 hours, transient) [fold] | Further stimulation of SHP expression (SHP) | Increase in basal insulin exocytosis (control islets; 50 uM, low glucose) [%] | Glucose-induced insulin secretion (control islets; 16.5 mM glucose) | EC50 [1] [µM] | Cytokine-induced enrichment in apoptotic cells, 24 hours (human islets [2]) | Viability by MTT (cytotoxicity) (human islets [3]; human islets, up to 50 uM, 24 or 48 hours post treatment) | Islet viability (MTT) (human islets [3]) | Insulin secretion at high glucose as compared to control islets (Type 2 diabetic islets; islets from a Type 2 diabetic donor, high glucose (16.5 mM)) [%] | Increase in insulin secretion at low glucose (Type 2 diabetic islets; islets from a Type 2 diabetic donor, low glucose) [%] |
| --- | --- | --- | --- | --- | --- | --- | --- | --- | --- | --- | --- | --- | --- | --- | --- |
| CCC/C=C(\CCC)C1=C(c2cccc(OC)c2)C2(Nc3ccccc3)CCCC2C1 (stereo not drawn) [Formula II] | did not enhance transcript levels | prevented the induction of LRH-1 expression | slight increase | increased insulin secretion | increased insulin secretion | 2 | did not further stimulate expression of SHP | 50 | unchanged | 0.43 | completely abrogated | no toxic effects; also recorded: no apparent detrimental effect | slightly reduced |  |  |
| C[C@]12CC[C@@H]3c4ccc(O)cc4CC[C@H]3[C@@H]1CC[C@@H]2O [17β-estradiol, reference compound] | transiently increased |  |  |  |  |  | did not further stimulate expression of SHP |  |  |  |  |  |  |  |  |
| COc1ccc(Cl)cc1C(=O)NCCc1ccc(S(=O)(=O)NC(=O)NC2CCCCC2)cc1 [Glibenclamide, reference compound] |  |  |  |  |  |  |  |  |  |  |  |  | impaired cell viability | 214 | 80 |
